Results reported in US6291507A, “Chemical compounds” (Astrazeneca UK Limited, priority 1998, dated 2001).

Molecular target: T1, hMCP-1 receptor (MCP-1 receptor B, CCR2B) (Homo sapiens, UniProt P41597)
T1 construct: expressed in transfected cells; host or cells: CHO-K1 (clone 7, CHO-CCR2B), membrane fragments
T1 sequence (P41597 1-360 isoform P41597-2): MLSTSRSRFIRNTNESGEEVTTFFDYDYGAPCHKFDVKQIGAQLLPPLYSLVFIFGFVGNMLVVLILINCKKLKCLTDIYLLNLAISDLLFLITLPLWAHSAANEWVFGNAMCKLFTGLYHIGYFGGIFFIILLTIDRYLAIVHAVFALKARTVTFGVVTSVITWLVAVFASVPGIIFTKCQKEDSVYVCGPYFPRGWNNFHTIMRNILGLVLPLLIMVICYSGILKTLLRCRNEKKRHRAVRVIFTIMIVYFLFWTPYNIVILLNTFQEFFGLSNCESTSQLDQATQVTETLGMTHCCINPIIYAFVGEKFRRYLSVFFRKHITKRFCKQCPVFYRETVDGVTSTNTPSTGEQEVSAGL
Test: hMCP-1 receptor-binding assay
Details: competition with 100 pM 125I-labelled MCP-1; CHO-CCR2B cell membranes; 0.1-200 μM, eight point dose-response curves in duplicate
Description: a) hMCP-1 Receptor-binding Assay
The MCP-1 receptor B (CCR2B) cDNA was cloned by PCR from THP-1 cell RNA using suitable oligonucleotide primers based on the published MCP-1 receptor sequences (Charo et al., 1994, Proc. Natl. Acad. Sci. USA, 91, 2752). The resulting PCR products were cloned into vector PCR-II™ (InVitrogen, San Diego, Calif.). Error free CCR2B cDNA was subcloned as a Hind III-Not I fragment into the eukaryotic expression vector pCDNA3 (InVitrogen) to generate pCDNA3/CC-CKR2A and pCDNA3/CCR2B respectively.
Linearised pCDNA3/CCR2B DNA was transfected into CHO-KI cells by calcium phosphate precipitation (Wigler et al., 1979, Cell, 16, 777). Transfected cells were selected by the addition of Geneticin Sulphate (G418, Gibco BRL) at 1 mg/ml, 24 hours after the cells had been transfected. Preparation of RNA and Northern blotting were carried out as described previously (Needham et al., 1995, Prot. Express. Purific., 6, 134). CHO-K1 clone 7 (CHO-CCR2B) was identified as the highest MCP-1 receptor B expressor.
CHO-CCR2B cells were grown in DMEM supplemented with 10% foetal calf serum, 2 mM glutamine, lx Non-Essential Amino Acids, 1× Hypoxanthine and Thymidine Supplement and Penicillin-Streptomycin (at 50 μg streptomycin/ml; Gibco BRL). […]

Cc1c2c(n(Cc3ccc(Cl)c(Cl)c3)c1C(=O)O)CCCC2=O [Example 4a, 1-(3,4-Dichlorobenzyl)-3-methyl-4-oxo-4,5,6,7-tetrahydroindole-2-carboxylicAcid]
IC50: 400 nM
